One data set relates to Mus musculus. Briefly: Acute toxicity in mice (LD100) after i.p. administration. Type of data set: organism-based. Conditions: in vivo, ip.
Data set [1] deals with L1210. Briefly: In vitro cytotoxicity against L1210 cell line as concentration required for 50% inhibition of cell growth. Conditions: Mus musculus, read-out: ID50 (the source's name). It counts as functional.
The nature of data set [2]: Acute toxicity in mice (LD0) after i.p. administration (highest nontoxic dose). It counts as organism-based. To be noted: mouse, in vivo, ip; read-out: LD0.
The test system of data set [3] is L1210. Briefly: Cytotoxicity against L1210 tumor cell line, activity is expressed as K (inverse value of drug concentration). It counts as functional, cell-based. To be noted: Mus musculus.
Data set [4] relates to L1210. Briefly: Antitumor activity against L1210 leukemia cells measured as Median survival time at 15 mg/kg. It counts as functional, Mus musculus.
In data set [5] the test system is L1210. Briefly: Antitumor activity against L1210 leukemia cells measured as range of death at 15 mg/kg; value may range from 7 to 44. Conditions: Mus musculus.
In data set [6] the test system is L1210. Briefly: Antitumor activity against L1210 leukemia cells measured as range of death at 2.5 mg/kg; value may range from 14 to 19. Type of data set: functional, Mus musculus.
In data set [7] the test system is L1210. Briefly: Antitumor activity against L1210 leukemia cells measured as Median survival time at 2.5 mg/kg. It counts as functional, Mus musculus.
Data set [8] deals with L1210. Briefly: Antitumor activity against L1210 leukemia cells measured as range of death at 15 mg/kg; value may range from 12 to 19. It counts as functional, Mus musculus.
The test system of data set [9] is L1210. Briefly: Antitumor activity against L1210 leukemia cells measured as range of death at 20 mg/kg; value may range from 15 to 19. It counts as functional, Mus musculus.
Data set [10] relates to L1210. Briefly: Antitumor activity against L1210 leukemia cells measured as Median survival time at 20 mg/kg. Type of data set: functional, Mus musculus.
The test system of data set [11] is L1210. Briefly: Antitumor activity against L1210 leukemia cells measured as percent increase in life span (% ILS) at 10 mg/kg. It counts as functional. To be noted: Mus musculus.
For data set [12], the system named is L1210. Briefly: Antitumor activity against L1210 leukemia cells measured as range of death at 10 mg/kg; value may range from 16 to 42. Type of data set: functional, Mus musculus.
In data set [13] the test system is L1210. Briefly: Antitumor activity against L1210 leukemia cells measured as Median survival time at 10 mg/kg. Type of data set: functional, Mus musculus.
Data set [14] deals with L1210. Briefly: Antitumor activity against L1210 leukemia cells measured as Median survival time at 12.5 mg/kg. It counts as functional, Mus musculus.
The subject of data set [15] is L1210. Briefly: Antitumor activity against L1210 leukemia cells measured as range of death at 12.5 mg/kg; value may range from 12 to 27. It counts as functional, Mus musculus.
The subject of data set [16] is L1210. Briefly: Antitumor activity against L1210 leukemia cells measured as range of death at 10 mg/kg; value may range from 8 to 20. It counts as functional, Mus musculus.
In data set [17] the test system is L1210. Briefly: Antitumor activity against L1210 leukemia cells measured as range of death at 15 mg/kg; value may range from 19 to 35. Type of data set: functional, Mus musculus.
Data set [18] deals with L1210. Briefly: Antitumor activity against L1210 leukemia cells measured as range of death at 12 mg/kg; value may range from 12 to 14. Type of data set: functional, Mus musculus.
In data set [19] the test system is L1210. Briefly: Antitumor activity against L1210 leukemia cells measured as Median survival time at 12 mg/kg. It counts as functional, Mus musculus.
The test system of data set [20] is L1210. Briefly: Antitumor activity against L1210 leukemia cells measured as range of death at 10 mg/kg; value may range from 8 to 28. It counts as functional, Mus musculus.

Consider eleven compounds from ChEMBL document CHEMBL1122434, “Antitumor amino-substituted pyrido[3',4':4,5]pyrrolo[2,3-g]isoquinolines and pyrido[4,3-b]carbazole derivatives: synthesis and evaluation of compounds resulting from new side chain and heterocycle modifications” (J Med Chem, 1983).

As usually defined, the ILS is the gain in survival time of treated over control animals, in per cent. Read a low ILS as little gain in survival.

In turn, `Cc1c2ccnc(NCCCN(C)C)c2c(C)c2c1[nH]c1ccncc12` displayed an LD100 in the data set with Mus musculus of 20 mg/kg. In the data set on L1210 [1], the IC50 is 8 nM. Also, the MTD in [2] stood at 15 mg/kg. The compound further yielded a K with L1210 [3] of 125 µM⁻¹. Besides, the MST in the data set with L1210 [4] came to 25.2 days. For the same compound, the Range of death in the data set on L1210 [5] was determined as 44 days.

`CCN(CC)CCCNc1nccc2c(C)c3[nH]c4ccc(O)cc4c3c(C)c12` showed an LD100 in the data set with Mus musculus of 10 mg/kg. In the data set with L1210 [6], this compound yielded a Range of death of 19 days. For the same compound, the IC50 in the data set with L1210 [1] turned out to be 30 nM. For the same compound, the MTD in data set [2] amounted to 3 mg/kg. The same compound came in with a K in the data set on L1210 [3] of 33 µM⁻¹. The MST in the data set with L1210 [7] worked out at 16.5 days.

In the case of `CCN(CC)CCCNc1nccc2c(C)c3[nH]c4ccc(OC)cc4c3cc12`, in the data set on Mus musculus, the LD100 was determined as 40 mg/kg. In the data set on L1210 [1], the IC50 is 5000 nM. The MTD in data set [2] came out at 20 mg/kg. The K in the data set on L1210 [3] came to 0.2 µM⁻¹. Moreover, in the data set with L1210 [4], the MST is 14.3 days. In addition, in the data set on L1210 [8], the Range of death was 19 days.

In turn, `CCN(CCCN)CCCNc1nccc2c(C)c3[nH]c4ccncc4c3cc12` came in with an LD100 in the data set with Mus musculus of 40 mg/kg. Also, the IC50 in the data set on L1210 [1] amounted to 200 nM. In addition, the MTD in [2] came out at 20 mg/kg. The compound further came in with a K with L1210 [3] of 5 µM⁻¹. In addition, the Range of death with L1210 [9] turned out to be 19 days. For the same compound, the MST in the data set with L1210 [10] was found to be 17 days.

Take `CCNCCCNc1nccc2c(C)c3[nH]c4ccncc4c3cc12`: the LD100 with Mus musculus was found to be 30 mg/kg. In the data set with L1210 [11], this compound returned an ILS at 10 mg/kg of 114%. For the same compound, the Range of death in the data set with L1210 [12] came out at 42 days. For the same compound, the MST in the data set on L1210 [13] is 25 days. The IC50 with L1210 [1] was determined as 100 nM. The MTD in [2] was determined as 20 mg/kg. In the data set on L1210 [3], this compound came in with a K of 10 µM⁻¹.

Consider `CCN(CC)CCCNc1nccc2c(C)c3[nH]c4ccc(O)cc4c3cc12`, for which, in the data set with Mus musculus, the LD100 amounted to 7 mg/kg. The Range of death in the data set with L1210 [6] stood at 19 days. For the same compound, the IC50 in the data set on L1210 [1] was found to be 20 nM. In addition, the MTD in [2] came to 2.5 mg/kg. The same compound returned a K in the data set with L1210 [3] of 50 µM⁻¹. The compound further yielded an MST in the data set on L1210 [7] of 16.4 days.

Take `CCN(CC)CC(O)CNc1nccc2c(C)c3[nH]c4ccncc4c3cc12` (centres undefined): in the data set with Mus musculus, the LD100 turned out to be 40 mg/kg. This compound yielded an MST with L1210 [14] of 16.3 days. The IC50 in the data set with L1210 [1] came out at 50 nM. For the same compound, the MTD in data set [2] is 25 mg/kg. Besides, the K with L1210 [3] was 20 µM⁻¹. In the data set with L1210 [15], this compound gave a Range of death of 27 days.

Take `Cc1c2c(NCCCN(C)C)nccc2c(C)c2c1c1cc(O)ccc1n2C`: the LD100 with Mus musculus is 50 mg/kg. The compound also returned an ILS at 10 mg/kg in the data set with L1210 [11] of 68%. The same compound registered an MST in the data set on L1210 [13] of 16.3 days. In the data set on L1210 [1], the IC50 stood at 30 nM. The MTD in data set [2] came out at 10 mg/kg. This compound also had a Range of death in the data set with L1210 [16] of 20 days. In the data set with L1210 [3], the K came to 33 µM⁻¹.

The compound `CCN(CC)CCCNc1nccc2c(C)c3[nH]c4ccc(OC)cc4c3c(C)c12` [RETELLIPTINE] gave an LD100 with Mus musculus of 60 mg/kg. Moreover, the IC50 in the data set with L1210 [1] worked out at 30 nM. The MTD in [2] stood at 15 mg/kg. In the data set with L1210 [3], the K was found to be 30 µM⁻¹. The same compound registered an MST in the data set with L1210 [4] of 29.5 days. The Range of death in the data set on L1210 [17] was found to be 35 days.

In the data set on Mus musculus, `CCN(CC)CCCNc1nccc2c(C)c3c(cc12)c1cc(O)ccc1n3C` gave an LD100 of 25 mg/kg. Besides, in the data set on L1210 [1], the IC50 came to 60 nM. Moreover, in the data set on L1210 [18], the Range of death was 14 days. Moreover, the MTD in data set [2] was 12.5 mg/kg. Further, the K with L1210 [3] was found to be 16 µM⁻¹. The same compound registered an MST with L1210 [19] of 13 days.

Compound `CCNCCCNc1nccc2c(C)c3[nH]c4ccc(OC)cc4c3c(C)c12` displayed an LD100 with Mus musculus of 20 mg/kg. For the same compound, in the data set with L1210 [11], the increase in life span (ILS) at 10 mg/kg amounted to 84%. Further, in the data set with L1210 [13], the MST is 20 days. Further, the IC50 in the data set on L1210 [1] was determined as 100 nM. Further, the MTD in data set [2] is 16 mg/kg. Moreover, the K with L1210 [3] was 10 µM⁻¹. In addition, in the data set with L1210 [20], the Range of death stood at 28 days.
